Biological target: T1, SOS1 protein (Homo sapiens, UniProt Q07889)
T1 construct: endogenous in cells; host or cells: HeLa cells
T1 sequence (Q07889 1-1333): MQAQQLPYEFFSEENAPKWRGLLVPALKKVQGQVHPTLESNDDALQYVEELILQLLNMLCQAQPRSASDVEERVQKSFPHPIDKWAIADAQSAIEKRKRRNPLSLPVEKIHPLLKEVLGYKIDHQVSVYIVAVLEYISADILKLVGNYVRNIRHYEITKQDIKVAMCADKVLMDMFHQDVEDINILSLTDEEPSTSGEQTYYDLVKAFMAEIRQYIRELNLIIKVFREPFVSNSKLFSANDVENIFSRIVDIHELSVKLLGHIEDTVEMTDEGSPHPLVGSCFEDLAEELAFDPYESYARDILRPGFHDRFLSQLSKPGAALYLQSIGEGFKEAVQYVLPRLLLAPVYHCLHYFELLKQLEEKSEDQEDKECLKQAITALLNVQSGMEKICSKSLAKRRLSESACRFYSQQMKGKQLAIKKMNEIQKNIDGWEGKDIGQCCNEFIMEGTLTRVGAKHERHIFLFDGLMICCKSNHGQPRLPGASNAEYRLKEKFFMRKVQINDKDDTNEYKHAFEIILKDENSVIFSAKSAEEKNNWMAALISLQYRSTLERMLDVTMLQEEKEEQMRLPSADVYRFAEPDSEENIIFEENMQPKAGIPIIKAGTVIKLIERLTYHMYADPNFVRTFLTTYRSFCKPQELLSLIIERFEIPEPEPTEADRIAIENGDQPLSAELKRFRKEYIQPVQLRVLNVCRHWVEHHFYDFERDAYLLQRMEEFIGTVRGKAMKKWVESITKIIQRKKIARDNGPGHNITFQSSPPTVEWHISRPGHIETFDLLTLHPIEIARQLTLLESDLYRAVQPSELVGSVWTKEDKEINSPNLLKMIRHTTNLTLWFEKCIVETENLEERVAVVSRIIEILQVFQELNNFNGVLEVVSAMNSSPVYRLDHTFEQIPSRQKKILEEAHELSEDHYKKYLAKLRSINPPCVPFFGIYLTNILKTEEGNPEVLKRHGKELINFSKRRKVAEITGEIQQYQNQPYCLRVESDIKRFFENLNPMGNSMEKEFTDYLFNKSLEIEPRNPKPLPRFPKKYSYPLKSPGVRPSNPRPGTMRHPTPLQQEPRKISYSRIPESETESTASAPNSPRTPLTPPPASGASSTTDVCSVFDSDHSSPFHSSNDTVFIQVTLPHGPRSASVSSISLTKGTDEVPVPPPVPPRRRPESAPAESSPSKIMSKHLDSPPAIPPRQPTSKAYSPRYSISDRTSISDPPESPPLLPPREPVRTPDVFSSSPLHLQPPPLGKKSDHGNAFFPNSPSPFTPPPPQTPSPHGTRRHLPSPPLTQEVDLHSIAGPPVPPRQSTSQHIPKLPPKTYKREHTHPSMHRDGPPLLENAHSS
Experiment: Amount of SOS1 protein in HeLa cells, Western blot analysis
Assay type: cell-based
Details: 48 hours after addition
Protocol: HeLa cells were seeded in a 24-well plate at a cell density of 8×10^4 cells/well, and then cultured under conditions of 37° C. and 5 vol % CO2 for 16 hours.
After 16 hours from cell seeding, TUS-007 was added to HeLa cells as follows. As a medium, a serum-free medium (37° C.) in which 1 mass % L-glutamine solution (Sigma-Aldrich) was added to D-MEM (high D-glucose, phenol red, sodium pyruvate (Wako Pure Chemical Industries, Ltd.)) was used. It is noted that the L-glutamine solution was added immediately before use. A DMSO solution containing TUS-007 was mixed with the medium so that the concentration of DMSO was 1 vol %, and added to each well at 500 μL/well, and cultured under conditions of 37° C. and 5 vol % CO2. As a control, DMSO was used.
The medium was removed 48 hours after addition of TUS-007, and then PBS was added to wash the cells. […]
After electrophoresis, proteins were transferred to a PVDF membrane (Immobion™-P, Millipore) under conditions of 100 V and 2 hours using a tank-type blotting device and a transfer buffer (25 mM Tris-HCl, 195 mM glycine, 0.01% SDS, 15% methanol). […] Subsequently, the membrane was treated with a chemiluminescence reagent Immobilon™ Western (Millipore), and then chemiluminescence was detected using a lumino image analyzer LAS-3000 (FUJIFILM Corporation). […]

CC[C@@H](C)[C@H](NC(=O)CCCCCCNC(=O)[C@H](CC(C)C)NC(=O)CNC(=O)c1cc(Cl)ccc1Cl)C(=O)Nc1ccc2[nH]c(Cc3c[nH]c4ccccc34)nc2c1 [TUS-007]
amount of SOS1 protein: not reduced

Source: US20190369111A1, “MOLECULAR KINETICS EVALUATION METHOD AND SCREENING METHOD” (Tokyo University of Science Foundation, priority 2016, published 2019)
